Data reported in EP1641803B1, “THIENOPYRIMIDINE DERIVATIVES AS POTASSIUM CHANNEL INHIBITORS” (Xention Limited, priority 2003, dated 2004).

Assays:
human Kv1.5 = molecular target: T1, human Kv1.5 (Homo sapiens, UniProt P22460); assay: Kv1.5 Rb+ Efflux Assay; assay type: cell-based; settings: inhibition of 86Rb+ efflux through Kv1.5; cells stably transfected with human Kv1.5; 10 point concentration response curves n=2; normalised to 2.5mM 4 amino-pyridine block
T1 construct: expressed in transfected cells
Description: The pore of a potassium channel is permeable to other monovalent cations such as Rb^+ and Tl^+. Analysis of cellular efflux of potassium channel permeable ions enables potassium channel activity to be monitored directly. Cells stably transfected with cDNA for human Kv1.5 (in pEF6::VA-His-TOPO) were grown in Dulbecco's Modified Eagle media (DMEM) alpha supplemented with 10% Fetal Calf Serum (FCS), 20 µl/ml penicillin (5000U/ml) streptomycin (5000µg/ml), 10µl/ml [100x] glutamine, and blasticidin (7.5µg/ml). Cells were dispensed into 96 well cellstar TC plates and allowed to grow until a confluent monolayer was visible. On the morning of the assay run, cold media was aspirated using the TECAN plate washer, and a 50µl media spike containing 2µCi/ml (37kBq/ml) ^86Rb^+ added to each well containing cells using the Shallow-Well Matrix Platemate. Plates were placed in a incubator at 37°C for a minimum of 3 hours. Unloaded ^86Rb^+ in the "hot" media was aspirated and each well washed 4x250µl with Earls Balanced Salt Solution (EBSS) which contained 5mM KCl, 140mM NaCl, 2mM CaCl2, 1mM MgSO4, 10mM HEPES, and 5mM glucose, pH 7.4, 290-300 mOsm. These cells were then pre-incubated with 50µl of EBSS +/- test compounds for 10 minutes at room temperature. After the 10 minute incubation, 50µl of modified EBSS which contained 145mM KCl, 2mM CaCl2, 1mM MgSO4, 10mM HEPES, 5mM glucose, pH 7.4, 290-300 mOsm, was added, and the cells were incubated for a further 10 minutes at room temperature. The high KCl EBSS was used to depolarise cells to a membrane potential that would activate Kv1.5 channels. After the final incubation 80µl/100µl of the reaction from each well was transferred to equivalent wells in a Packard "Optiplate" white 96 well plate and counted in a Packard TopCount liquid scintillation counter by Cerenkov emission. Percentage inhibition ^86Rb^+ efflux through Kv1.5 was calculated by normalisation to 2.5mM 4 amino-pyridine control block of Kv1.5. Alternatively cells were loaded with ^85Rb^+ and quantified by atomic absorption spectroscopy. IC50 determinations were derived from 10 point concentration response curves n=2 using the method described above. Data was fitted as variable slope sigmoidal fit using Graphpad Prism (V3.02) software.

hKv1.5 = hKv1.5 (Homo sapiens, UniProt P22460); assay: Kv1.5 Autopatch Electrophysiology (whole cell patch-clamp); assay type: cell-based; settings: compound at 1µM, room temperature (22-24°C), held at -80mV, step to 0mV for 1000ms, total charge measured
Procedure, shortened: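 Whole-cell automated patch-clamp at 22-24°C, compounds tested at 1µM in external bather (KCl/K-gluconate, pH 7.4; KCl/EGTA pipette). Cells held at -80mV and stepped to 0mV for 1000ms every 5s; only cells with IK > 500 pA and Rseries ≤18 MΩ used. Read-out: total charge over the whole step.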

T1 sequence (P22460 whole entry): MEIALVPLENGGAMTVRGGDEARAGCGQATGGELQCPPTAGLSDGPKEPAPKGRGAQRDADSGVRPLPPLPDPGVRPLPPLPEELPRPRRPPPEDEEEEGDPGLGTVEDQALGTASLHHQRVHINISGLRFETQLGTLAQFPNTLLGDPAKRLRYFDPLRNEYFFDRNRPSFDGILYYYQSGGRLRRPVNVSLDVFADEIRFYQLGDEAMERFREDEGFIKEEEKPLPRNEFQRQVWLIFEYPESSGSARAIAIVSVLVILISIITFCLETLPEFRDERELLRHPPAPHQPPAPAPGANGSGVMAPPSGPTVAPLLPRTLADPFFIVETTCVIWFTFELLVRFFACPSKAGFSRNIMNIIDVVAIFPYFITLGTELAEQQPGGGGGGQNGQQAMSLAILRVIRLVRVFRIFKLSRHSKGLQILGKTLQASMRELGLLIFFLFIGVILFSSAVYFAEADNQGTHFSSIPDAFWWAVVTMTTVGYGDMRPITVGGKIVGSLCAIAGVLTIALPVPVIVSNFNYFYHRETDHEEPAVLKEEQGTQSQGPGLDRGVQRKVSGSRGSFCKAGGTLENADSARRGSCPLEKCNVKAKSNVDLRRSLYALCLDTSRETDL
Chain of hKv1.5 (P22460 whole entry): as above

SMILES | IC50 (human Kv1.5) [µM] | inhibition at 1 µM (hKv1.5) [%] | % Inhibition at 1µM (hKv1.5; 1 µM) [%]
c1ccc(-c2csc3ncnc(NCc4csc(-c5cccs5)n4)c23)cc1 [Example 161, (5-Phenyl-thieno[2,3-d]pyrimidin-4-yl)-(2-thiophen-2-yl-thiazol-4-ylmethyl)-amine] | 25.5 | 79.4 | 
OCCNc1nc(NCc2ccccn2)c2c(-c3ccccc3)csc2n1 [Example 190, 2-{5-Phenyl-4-[(pyridin-2-ylmethyl)-amino]-thieno[2,3-d]pyrimidin-2-ylamino}-ethanol] | 0.26 | 97.1 | 
FC(F)(F)c1ccc(-c2csc3ncnc(NCc4ccccn4)c23)cc1 [Example 313, Pyridin-2-ylmethyl-[5-(4-trifluoromethyl-phenyl)-thieno[2,3-d]pyrimidin-4-yl]-amine] | 2.9 | 98.3 | 
c1ccc(CNc2ncnc3scc(-c4ccccc4)c23)cc1 [Example 86, Benzyl-(5-phenyl-thieno[2,3-d]pyrimidin-4-yl)-amine] | 4.36 | 46 | 
Fc1ccc(-c2csc3ncnc(NCc4ccccn4)c23)cc1F [Example 333, [5-(3,4-Difluoro-phenyl)-thieno[2,3-d]pyrimidin-4-yl]-pyridin-2-ylmethyl-amine] | 10.4 | 63 | 
Fc1cccc(-c2csc3ncnc(NCc4ccccn4)c23)c1 [Example 331, [5-(3-Fluorophenyl)-thieno[2,3-d]pyrimidin-4-yl]-pyridin-2-ylmethyl-amine] | 0.03 | 76 | 
COCCOc1nc(NCc2ccccn2)c2c(-c3ccccc3)csc2n1 [Example 203, [2-(2-Methoxy-ethoxy)-5-phenyl-thieno[2,3-d]pyrimidin-4-yl]-pyridin-2-ylmethyl-amine] | 0.48 | 98 | 
OCCC1CCN(c2nc(NCc3ccccn3)c3c(-c4ccccc4)csc3n2)CC1 [Example 206, 2-(1-{5-Phenyl-4-[(pyridin-2-ylmethyl)-amino]-thieno[2,3-d]pyrimidin-2-yl}-piperidin-4-yl)-ethanol] | 3.41 | 97.5 | 
c1ccc(-c2csc3nc(NCC4CC4)nc(NCc4ccccn4)c23)cc1 [Example 188, N^2-Cyclopropylmethyl-5-phenyl-N^4-pyridin-2-ylmethyl-thieno[2,3-d]pyrimidine-2,4-diamine] | 2.52 | 98 | 
CCOC(=O)CCNc1nc(NCc2ccccn2)c2c(-c3ccccc3)csc2n1 [Example 202, 3-{5-Phenyl-4-[(pyridin-2-ylmethyl)-amino]-thieno[2,3-d]pyrimidin-2-ylamino}-propionic acid ethyl ester] | 2.7 | 98 | 
c1ccc(-c2csc3ncnc(NCC4CCCCC4)c23)cc1 [Example 89, Cyclohexylmethyl-(5-phenyl-thieno[2,3-d]pyrimidin-4-yl)-amine] | 8.1 |  | 42.2
CC(C)(C)c1ccc(-c2csc3ncnc(NCc4ccco4)c23)cc1 [Example 145, [5-(4-tert-Butyl-phenyl)-thieno[2,3-d]pyrimidin-4-yl]-furan-2-ylmethyl-amine] | 3.05 | 68 | 
c1ccc(-c2csc3nc(NCc4ccco4)nc(NCc4ccco4)c23)cc1 [Example 193, N,N'-Bis(2-furylmethyl)-5-phenylthieno[2,3-d]pyrimidine-2,4-diamine] | 2.5 | 89.2 | 
Cc1ccc(-c2csc3ncnc(NCCN4CCNC4=O)c23)cc1 [Example 128, 1-[2-(5-p-Tolyl-thieno[2,3-d]pyrimidin-4-ylamino)-ethyl]-imidazolidin-2-one] | > 30 | 25 | 
CNc1nc(NCc2ccccn2)c2c(-c3ccccc3)csc2n1 [Example 196, N^2-methyl-5-phenyl-N^4-(pyridin-2-ylmethyl)thieno[2,3-d]pyrimidine-2,4-diamine] | 0.04 | 97 | 
OCCN(CCO)c1nc(NCc2ccccn2)c2c(-c3ccccc3)csc2n1 [Example 208, 2-((2-Hydroxy-ethyl)-{5-phenyl-4-[(pyridin-2-ylmethyl)-amino]-thieno[2,3-d]pyrimidin-2-yl}-amino)-ethanol] | 0.33 | 96.6 | 

SMILES | IC50 (human Kv1.5) [µM] | inhibition at 1 µM (hKv1.5) [%] | % Inhibition at 1µM (hKv1.5; 1 µM) [%]
C=CCNc1ncnc2scc(-c3ccccc3)c12 [Example 87, Allyl-(5-phenyl-thieno[2,3-d]pyrimidin-4-yl)-amine] | 5.14 | 3.4 | 
CCc1sc2ncnc(NCc3ccco3)c2c1-c1ccoc1 [Example 141, (6-Ethyl-5-furan-3-yl-thieno[2,3-d]pyrimidin-4-yl)-furan-2-ylmethyl-amine] | 2.15 | 81.3 | 
c1ccc(COc2ncnc3scc(-c4ccccc4)c23)cc1 [Example 119, 4-Benzyloxy-5-phenyl-thieno[2,3-d]pyrimidine] | 5.79 | 44.1 | 
N#Cc1nc(NCc2ccccn2)c2c(-c3ccccc3)csc2n1 [Example 199, 5-Phenyl-4-[(pyridin-2-ylmethyl)-amino]-thieno[2,3-d]pyrimidine-2-carbonitrile] | 6.61 | 99.5 | 
OCC(CO)Nc1nc(NCc2ccccn2)c2c(-c3ccccc3)csc2n1 [Example 210, 2-{5-Phenyl-4-[(pyridin-2-ylmethyl)-amino]-thieno[2,3-d]pyrimidin-2-ylamino}-propane-1,3-diol] | 0.74 | 95.6 | 
c1coc(CNc2ncnc3scc(-c4cccs4)c23)c1 [Example 92, Furan-2-ylmethyl-(5-thiophen-2-yl-thieno[2,3-d]pyrimidin-4-yl)-amine] | 1.91 | 27.6 | 
c1ccc(-c2csc3ncnc(SCc4ccccn4)c23)cc1 [Example 120, 5-Phenyl-4-(pyridin-2-ylmethylsulfanyl)-thieno[2,3-d]pyrimidine] | 12.7 | 25 | 
Cc1ccc(-c2csc3ncnc(NCc4ccccn4)c23)nc1 [Example 121, [5-(5-Methyl-pyridin-2-yl)-thieno[2,3-d]pyrimidin-4-yl]-pyridin-2-ylmethyl-amine] | 2.09 | 82.6 | 
c1ccc(-c2nc(CNc3ncnc4scc(-c5ccccc5)c34)cs2)cc1 [Example 162, (2-Phenyl-thiazol-4-ylmethyl)-(5-phenyl-thieno[2,3-d]pyrimidin-4-yl)-amine] | 19.7 | 74.5 | 
CN(C)c1nc(NCc2ccccn2)c2c(-c3ccc(F)cc3)csc2n1 [Example 200, 5-(4-Fluorophenyl)-N^2,N^2-dimethyl-N^4-pyridin-2-ylmethyl-thieno[2,3-d]pyrimidine-2,4-diamine] | 71.8 | 99.3 | 
COc1ccc(CCNc2ncnc3scc(-c4ccc(C)cc4)c23)cc1OC [Example 127, [2-(3,4-Dimethoxy-phenyl)-ethyl]-(5-p-tolyl-thieno[2,3-d]pyrimidin-4-yl)-amine] | 5.3 | 20.7 | 
c1ccc(CNc2ncnc3scc(-c4ccc5cc[nH]c5c4)c23)nc1 [Example 323, [5-(1H-Indol-6-yl)-thieno[2,3-d]pyrimidin-4-yl]-pyridin-2-ylmethyl-amine] | 0.04 | 94 | 
Clc1cccc(-c2csc3ncnc(NCc4ccccn4)c23)c1 [Example 321, [5-(3-Chlorophenyl)-thieno[2,3-d]pyrimidin-4-yl]-pyridin-2-ylmethyl-amine] | 1.52 | 95 | 
CCOC(=O)Cc1nc(NCc2ccco2)c2c(-c3ccccc3)csc2n1 [Example 238, {4-[(Furan-2-ylmethyl)-amino]-5-phenyl-thieno[2,3-d]pyrimidin-2-yl}-acetic acid ethyl ester] | 3.33 | 96 | 
c1ccc(-c2csc3ncnc(NCCc4cccs4)c23)cc1 [Example 118, (5-Phenyl-thieno[2,3-d]pyrimidin-4-yl)-(2-thiophen-2-yl-ethyl)-amine] | 8.56 | 15.8 | 
